{"source": "patent US9510593B2", "about": "“S-benzylthiouracil compounds and methods of enhancing plant root growth” (Valent BioSciences Corporation, priority 2014, dated 2016)", "type_in_all_cases": "in vivo", "key": {"[1]": {"test_system": "Wheat (cultivar; Apogee)", "test": "Wheat yield enhancement by foliar spray treatment under high temperature stress", "details": "for Average fresh weight of young ears: 36° C./32° C. for 7 days, 56th day after seeding, control 1.68", "experimental": "Wheat (cultivar; Apogee) was sown in soil pots (5 seeds/pot) and then cultivated in a growth chamber at a temperature of 18° C. (day)/15° C. (night) and at a day length of 12 hours for 28 days. Plants were thinned to 3 plants/pot. On the 28th day after sowing, the plants were treated by foliar spray application with a solution containing the test compound. On the 2nd day after the spray application the plants were subjected to high temperatures for 7 days in a growth chamber 36° C. (day)/32° C. (night) and a day length of 12 hours. After the stress treatment, the plants were cultivated in a growth chamber at a temperature of 18° C. (day)/15° C. (night) and a day length of 12 hours. On the 56th day after seeding, the total fresh weight of the young ears from the 3 plants in each pot was measured (n=8 replicates).\nWheat seeds (cultivar; Apogee) were sown in soil pots (5 seeds/pot) and then cultivated in a growth chamber at a temperature of 18° C. (day)/15° C. (night) and at a day length of 12 hours for 28 days. The wheat plants on the 28th day after seeding were treated by foliar spray application with a solution containing the Compound 1 at concentrations of 1 ppm to 100 ppm. As an untreated control group, the plants were treated with blank solution without Compound 1. Three seedlings per pot were used for the test. On the 2nd day after the spray application, the plants were treated with high temperature for 7 days in a growth chamber at a temperature of 36° C. (day)/32° C. (night) and a day length of 12 hours. After the stress treatment, the plants were cultivated in a growth chamber at a temperature of 18° C. (day)/15° C. (night) and a day length of 12 hours. On the 56th day after seeding, total fresh weight of young seed heads from 3 plants in each pot were measured for 8 replicates of each treatment."}, "[2]": {"test_system": "tomato", "test": "Tomato petri plate assay", "details": "Solanum lycopersicum, 144 h; 10 ppm; after 6 days of continuous exposure; read-out: Percent Increase (percent change in primary tomato root length)", "experimental": "For tomato, the plants were grown in disposable (150 mm) sterile plastic petri plates (Falcon, BD Biosciences, Franklin Lakes, N.J.). In the tomato assay, a single sheet of Whatman #1 filter paper was placed at the bottom of the plate, 15 tomato seeds were added, and 10 mL of treatment solution was added. At the end of 6 d, the 10 largest seedlings were selected for measurement from each plate. In each study, a minimum of 3 replicate plates were used. In tomato, several S-Benzylthiouracil compounds were tested to determine the effects on root growth."}, "[3]": {"test_system": "Rice (cultivar; Nipponbare)", "test": "Rice growth enhancement by hydroponic treatment under drought stress", "experimental": "Germinated rice seeds (cultivar; Nipponbare) were cultivated in 2-fold diluted Kimura B hydroponic solution in a growth chamber at a temperature of 28° C. (day)/23° C. (night) and a day length of 12 hours for 14 days. Drought stress was provided by withdrawal of the hydroponic solution from the culture tube for 2 days in a growth chamber at a temperature of 28° C. (day)/23° C. (night) and a day length of 12 hours. After the drought treatment, plants were cultivated in 2-fold diluted Hoagland's hydroponic solution in a growth chamber at a temperature of 28° C. (day)/23° C. (night)) and a day length of 12 hours for 14 days. Then the total fresh weight of the shoots of 5 plants was measured for 3 replicates.\nGerminated rice seeds (cultivar; Nipponbare) were cultivated in 2-fold diluted Kimura B hydroponic solution including 1 ppm of the Compound 1 and 0.01% dimethyl sulfoxide in a growth chamber at a temperature of 28° C. (day)/23° C. (night)) and a day length of 12 hours for 14 days. As an untreated control group, the plants were cultivated in the hydroponic solution without Compound 1.\nDrought stress was provided by withdrawal of the hydroponic solution from the culture tube for 2 days in a growth chamber at a temperature of 28° C. (day)/23° C. (night) and a day length of 12 hours. After the drought treatment, the treated plants were cultivated in 2-fold diluted Hoagland's hydroponic solution in a growth chamber at a temperature of 28° C. (day)/23° C. (night) and a day length of 12 hours for 14 days, and then total fresh weight of the shoots of 5 plants was examined for 3 replicates."}, "[4]": {"test_system": "Maize (cultivar; Kuromochi)", "test": "Maize growth enhancement by seed treatment under low temperature stress", "details": "for Average weight of the shoots: 2.5° C. for 4 days, 18th day after seeding, control 1.50", "experimental": "Maize seeds (cultivar; Kuromochi) were treated with Compound 1 at dose rates of 0.005 gram to 0.5 gram per 100 kilogram seeds. The seeds were sown into a soil pot (one seed/pot) and then cultivated in a growth chamber at a temperature of 27° C. and a day length of 16 hours for 10 days. On the 10th day after seeding, the plants were subjected to a temperature of 2.5° C. for 4 days at a day length of 16 hours. Following the stress treatment, they were cultivated for an additional 4 days in a growth chamber at a temperature of 27° C. and a day length of 16 hours. On the 18th day after seeding, the fresh shoot weight of each plant was measured for 5 replicates."}}}
{"compound": "Oc1ccnc(SCc2cccc(F)c2)n1", "note": "[Compound 1, S-(3-Fluorobenzyl)-2-thiouracil]", "values": [{"measurement": "Average fresh weight of young seed heads versus untreated controls, in words", "setting": "[1]; 1 ppm to 100 ppm foliar spray, high temperature stress", "result": "larger than those of the untreated controls"}, {"measurement": "Average fresh weight of young ears", "setting": "[1]; foliar spray 1 ppm", "result": 1.71, "unit": "grams/3 plants"}, {"measurement": "Percent (untreated control = 100)", "setting": "[1]; foliar spray 1 ppm, high temperature stress", "result": 105, "unit": "%"}, {"measurement": "Average fresh weight of young ears", "setting": "[1]; foliar spray 10 ppm", "result": 1.70, "unit": "grams/3 plants"}, {"measurement": "Percent (untreated control = 100)", "setting": "[1]; foliar spray 10 ppm, high temperature stress", "result": 104, "unit": "%"}, {"measurement": "Average fresh weight of young ears", "setting": "[1]; foliar spray 100 ppm", "result": 1.87, "unit": "grams/3 plants"}, {"measurement": "Percent (untreated control = 100)", "setting": "[1]; foliar spray 100 ppm, high temperature stress", "result": 115, "unit": "%"}, {"measurement": "change in vivo at 10 ppm", "setting": "[2]", "result": 8.3, "unit": "%"}, {"measurement": "Percent (shoot weight, untreated control = 100)", "setting": "[3]; 1 ppm in hydroponic solution, drought stress", "result": 112, "unit": "%"}, {"measurement": "Average weight of the shoots", "setting": "[3]; 1 ppm in hydroponic solution, drought stress 2 days, control 0.43", "result": 0.48, "unit": "gram/5 plants"}, {"measurement": "Average shoot weight versus untreated control, in words", "setting": "[3]; 1 ppm, drought stress", "result": "larger than that of the untreated control"}, {"measurement": "Average weight of the shoots", "setting": "[4]; 0.005 grams/100-kg seeds", "result": 1.78, "unit": "gram/plant"}, {"measurement": "Percent (shoot weight, untreated control = 100)", "setting": "[4]; 0.005 grams/100-kg seeds, low temperature stress", "result": 119, "unit": "%"}, {"measurement": "Average weight of the shoots", "setting": "[4]; 0.05 grams/100-kg seeds", "result": 2.06, "unit": "gram/plant"}, {"measurement": "Percent (shoot weight, untreated control = 100)", "setting": "[4]; 0.05 grams/100-kg seeds, low temperature stress", "result": 138, "unit": "%"}, {"measurement": "Average weight of the shoots", "setting": "[4]; 0.5 grams/100-kg seeds", "result": 1.85, "unit": "gram/plant"}, {"measurement": "Percent (shoot weight, untreated control = 100)", "setting": "[4]; 0.5 grams/100-kg seeds, low temperature stress", "result": 124, "unit": "%"}, {"measurement": "Average fresh shoot weight versus untreated control, in words", "setting": "[4]; across 0.005 to 0.5 gram per 100 kilogram seeds, low temperature stress", "result": "larger than that of the untreated control"}]}
